Experimental data from US20150313825A1, “METHODS AND COMPOSITIONS FOR LOCALLY INCREASING BODY FAT” (TOPOKINE THERAPEUTICS, INC., priority 2012, published 2015).
Like-named read-outs stand apart in the source and are kept apart here. Marks after values point to notes of the source that are not given here.

What was measured:
subcutaneous fat [1] = assay: Mouse study of percutaneous rosiglitazone, methods of Example 1 (Example 2); conditions: rosiglitazone 0.1% or 0.3% by weight
[2] = oral, 4 mg/d, humans; cited from earlier work
subcutaneous fat [3] = conditions: for Rosiglitazone Increase over Placebo (fat thickness), MEAN: 42 days, p<0.0001
Protocol: A prospective controlled trial was performed in 4 Gottingen minipigs (2 males, 2 females). Hair on the back was clipped. […] An equivalent Vehicle Treatment Area was marked on the left side of the animal, such that the two treatment areas were anatomically equivalent. […] After 42 days of treatment, plasma pharmacokinetics (PK) was assessed on all animals by Liquid Chromatography/Tandem Mass Spectrometry. Necropsy was done and samples of skin, subcutaneous fat, and muscle were collected en bloc from each treatment area in a controlled fashion. […] Table 5 presents the thicknesses of subcutaneous fat on each of six treated and control (vehicle) locations, by animal. […] Table 6 compares plasma PK following percutaneous administration (present study) with plasma PK following oral administration in humans.

subcutaneous fat [4] = assay: Randomized controlled trial in mice, daily percutaneous application to right flank for 24 days (Example 1); assay type: in vivo, C57BL/6J mice; conditions: for Mean weight gain relative to vehicle / Mean weight gain / Local increase in subcutaneous fat (treated right flank vs untreated left flank): 5 mM in Lipoderm; for Mean weight gain relative to vehicle / Mean weight gain: 0.1 cc to flank daily, Day 0 until Day 24; for Mean weight gain: high-fat diet; for Local increase in subcutaneous fat (treated right flank vs untreated left flank): following 24 days of therapy
Protocol: The arms were as follows: vehicle (Lipoderm®), a thiazolidinedione (pioglitazone), harmine, an orexigenic compound (megestrol acetate), and efavirenz. Each compound was combined in the percutaneous Lipoderm® formulation at an equimolar concentration (5 mM). The Lipoderm® vehicle is adapted to deliver the respective compound percutaneously, i.e., across the skin and into subcutaneous fat. The formulations were applied daily to the right flank of each animal, whereas the left flank was used as an untreated control.
A randomized controlled trial was conducted on C57BL/6J. Male mice approximately six weeks old were prospectively randomized into groups and assigned to the following treatment conditions (n=5 animals per group):
Animals were shaved and depilated over the flanks at the start of the study.
Animals were kept in identical conditions and fed ab libitum with a standardized high-fat diet (70% kcal fat). Animals were weighed three times weekly. Following 24 consecutive days of treatment, mice were sacrificed and samples of skin and adjacent fat from the treated flanks are taken for histologic examination.

subcutaneous fat [5] = assay: Clinical application for augmentation of the buttocks (Example 9); assay type: in vivo, human; conditions: 10 mg/ml in Lipoderm daily, after 6 months
Protocol: The following description exemplifies a clinical application of percutaneous administration of an orexigenic pregnane derivative for augmentation of the buttocks. A female or male patient wishes to undergo a buttocks augmentation procedure but is concerned about the risks of surgery. The physician prescribes a daily application of megestrol acetate (for example, 10 mg/ml in Lipoderm®) to the buttocks.

| Structure (SMILES) | Mean weight gain relative to vehicle (subcutaneous fat [4]) [%] | Mean weight gain (subcutaneous fat [4]) [g] | Local increase in subcutaneous fat (treated right flank vs untreated left flank) (subcutaneous fat [4]) | other results |
| --- | --- | --- | --- | --- |
| CN(CCOc1ccc(CC2SC(=O)NC2=O)cc1)c1ccccn1 (stereo not drawn) [Rosiglitazone] | – | – | – | Adverse effects (subcutaneous fat [1]): No adverse effects were noted; Peak plasma level (Cmax) [2]: 355 ng/mL; Plasma exposure (AUC0-24) [2]: 2542 ng·h/mL; Fat Thickness (mm), Rosiglitazone Treatment Area, MEAN (subcutaneous fat [3]; mean of 24 locations, vehicle mean 4.39, p < .0001 (paired t-test)): 6.29* mm; Rosiglitazone Increase over Placebo (fat thickness), MEAN (subcutaneous fat [3]): 48%; Rosiglitazone Increase over Placebo (fat thickness), MEAN (subcutaneous fat [3]; listed as rosiglitazone): 48%; Tolerability, skin irritation and clinical observations (subcutaneous fat [3]; minipig, in vivo): well tolerated, with no evidence of skin irritation or other clinical observations |
| CC(=O)O[C@]1(C(C)=O)CC[C@H]2[C@@H]3C=C(C)C4=CC(=O)CC[C@]4(C)[C@H]3CC[C@@]21C [Megestrol acetate] | 120 | 8.0 | local increases in subcutaneous fat | Relative skin fold thickness of the left and right flanks (subcutaneous fat [4]; Day 24, treated vs untreated flank): asymmetric, with thicker skin folds on the treated flanks; Skin fold thickness, right (treated) flank (subcutaneous fat [4]; representative mouse, 24 days of treatment, untreated left flank about 2 mm): about 4 mm; Clinical size of buttocks (subcutaneous fat [5]): the buttocks appear clinically larger |
| O=C1Nc2ccc(Cl)cc2[C@@](C#CC2CC2)(C(F)(F)F)O1 [Efavirenz] | 92 | 6.1 | did not exhibit any increase in fat or asymmetry | – |
| COc1ccc2c(c1)[nH]c1c(C)nccc12 [Harmine] | 102 | 6.8 | did not exhibit any increase in fat or asymmetry | – |
| CCc1ccc(CCOc2ccc(CC3SC(=O)NC3=O)cc2)nc1 (stereo not drawn) [Pioglitazone] | 112 | 7.4 | – | – |
